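Five concentrations, 48 hours, 96-well plates. Abbreviation: GI50, concentration required for 50% inhibition of growth. TGI marks complete inhibition of growth.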
Key:
Assay in all cases: growth of human tumour cells (NCI), 48 h
KM12 colon = system: KM12 colon
UO-31 renal = system: UO-31 renal
IGROV1 ovarian = system: IGROV1 ovarian
HCT-15 colon = system: HCT-15 colon
MOLT-4 leukemia = system: MOLT-4 leukemia
ACHN renal = system: ACHN renal
NCI-H460 lung = system: NCI-H460 lung
UACC-62 melanoma = system: UACC-62 melanoma
A498 renal = system: A498 renal
DU-145 prostate = system: DU-145 prostate
COLO 205 colon = system: COLO 205 colon
OVCAR-4 ovarian = system: OVCAR-4 ovarian
HS 578T breast = system: HS 578T breast
K-562 leukemia = system: K-562 leukemia
UACC-257 melanoma = system: UACC-257 melanoma
RPMI-8226 leukemia = system: RPMI-8226 leukemia
SF-268 CNS = system: SF-268 CNS
HCC-2998 colon = system: HCC-2998 colon
M14 melanoma = system: M14 melanoma
EKVX NSCLC = system: EKVX NSCLC
PC-3 prostate = system: PC-3 prostate
CCRF-CEM leukemia = system: CCRF-CEM leukemia
NCI-H23 lung = system: NCI-H23 lung
MDA-MB-231 breast = system: MDA-MB-231 breast
786-0 renal = system: 786-0 renal
RXF 393 renal = system: RXF 393 renal
TK-10 renal = system: TK-10 renal
T-47D breast = system: T-47D breast
HOP-62 NSCLC = system: HOP-62 NSCLC
SK-MEL-28 melanoma = system: SK-MEL-28 melanoma
SF-539 CNS = system: SF-539 CNS
NCI-H226 lung = system: NCI-H226 lung
SW-620 colon = system: SW-620 colon
HT29 colon = system: HT29 colon
BT-549 breast = system: BT-549 breast
SNB-19 CNS = system: SNB-19 CNS
A549 NSCLC = system: A549 NSCLC
SK-MEL-2 melanoma = system: SK-MEL-2 melanoma
SR leukemia = system: SR leukemia
CAKI-1 renal = system: CAKI-1 renal
HCT-116 colon = system: HCT-116 colon
SNB-75 CNS = system: SNB-75 CNS
OVCAR-8 ovarian = system: OVCAR-8 ovarian
OVCAR-3 ovarian = system: OVCAR-3 ovarian
SK-OV-3 ovarian = system: SK-OV-3 ovarian
SF-295 CNS = system: SF-295 CNS
NCI/ADR-RES ovarian = system: NCI/ADR-RES ovarian
SK-MEL-5 melanoma = system: SK-MEL-5 melanoma
NCI-H522 lung = system: NCI-H522 lung
MCF7 breast = system: MCF7 breast
MALME-3M melanoma = system: MALME-3M melanoma
MDA-MB-435 = system: MDA-MB-435
HL-60(TB) leukemia = system: HL-60(TB) leukemia
U251 CNS = system: U251 CNS
OVCAR-5 ovarian = system: OVCAR-5 ovarian
LOX IMVI melanoma = system: LOX IMVI melanoma
SN12C renal = system: SN12C renal

Structure (SMILES): COc1ccc2c(ccc3c(C(=O)NCCCN(C)CCCNC(=O)c4cn(C)c5c4ccc4cc(OC)ccc45)cn(C)c32)c1
- TGI (KM12 colon): 2.9 µM
- TGI (UO-31 renal): 3.01 µM
- TGI (IGROV1 ovarian): 2.86 µM
- TGI (HCT-15 colon): 2.6 µM
- TGI (MOLT-4 leukemia): > 100 µM
- TGI (ACHN renal): 3.02 µM
- TGI (NCI-H460 lung): 2.79 µM
- TGI (UACC-62 melanoma): 3.15 µM
- TGI (A498 renal): > 100 µM
- TGI (DU-145 prostate): 3.17 µM
- TGI (COLO 205 colon): 4.87 µM
- TGI (OVCAR-4 ovarian): 3.27 µM
- TGI (HS 578T breast): 4.78 µM
- TGI (K-562 leukemia): > 100 µM
- TGI (UACC-257 melanoma): 2.97 µM
- TGI (RPMI-8226 leukemia): 5.89 µM
- TGI (SF-268 CNS): 3.38 µM
- TGI (HCC-2998 colon): 2.97 µM
- TGI (M14 melanoma): 2.94 µM
- TGI (EKVX NSCLC): 2.92 µM
- TGI (PC-3 prostate): 2.88 µM
- TGI (CCRF-CEM leukemia): > 100 µM
- TGI (NCI-H23 lung): 2.97 µM

Structure (SMILES): C[C@]12CC[C@H]3[C@@H](CC[C@]4(O)C[C@@H](O[C@@H]5O[C@H](CO)[C@@H](O[C@@H]6OC[C@@H](O)[C@H](O)[C@H]6O)[C@H](O)[C@H]5O)CC[C@]34C=O)[C@@]1(O)CC[C@@H]2C1=CC(=O)OC1
- GI50 (MDA-MB-231 breast): 3.38 µM
- TGI (MDA-MB-231 breast): 22 µM
- GI50 (KM12 colon): 1.98 µM
- TGI (KM12 colon): 8.23 µM
- GI50 (786-0 renal): 1.42 µM
- TGI (786-0 renal): 5.19 µM
- GI50 (UO-31 renal): 1.54 µM
- TGI (UO-31 renal): 5.01 µM
- GI50 (IGROV1 ovarian): 1.84 µM
- TGI (IGROV1 ovarian): 17.6 µM
- GI50 (HCT-15 colon): 1.6 µM
- TGI (HCT-15 colon): 5.12 µM
- GI50 (MOLT-4 leukemia): 0.302 µM
- TGI (MOLT-4 leukemia): 1.82 µM
- GI50 (RXF 393 renal): 1.25 µM
- TGI (RXF 393 renal): 3.11 µM
- GI50 (TK-10 renal): 1.19 µM
- TGI (TK-10 renal): 4.49 µM
- GI50 (T-47D breast): 1.55 µM
- TGI (T-47D breast): 7.77 µM
- GI50 (ACHN renal): 0.306 µM
- TGI (ACHN renal): 1.88 µM
- GI50 (HOP-62 NSCLC): 0.702 µM
- TGI (HOP-62 NSCLC): 3 µM
- GI50 (SK-MEL-28 melanoma): 2.76 µM
- TGI (SK-MEL-28 melanoma): 15.6 µM
- GI50 (SF-539 CNS): 0.853 µM
- TGI (SF-539 CNS): 1.84 µM
- GI50 (NCI-H460 lung): 0.379 µM
- TGI (NCI-H460 lung): 1.31 µM
- GI50 (NCI-H226 lung): 1.47 µM
- TGI (NCI-H226 lung): 3.69 µM
- GI50 (SW-620 colon): 1.35 µM
- TGI (SW-620 colon): 4.67 µM
- GI50 (UACC-62 melanoma): 1.61 µM
- TGI (UACC-62 melanoma): 5.04 µM
- GI50 (A498 renal): 1.23 µM
- TGI (A498 renal): 4.5 µM
- GI50 (DU-145 prostate): 0.902 µM
- TGI (DU-145 prostate): 2.31 µM
- GI50 (HT29 colon): 1.82 µM
- TGI (HT29 colon): 5.71 µM
- GI50 (BT-549 breast): 1.06 µM
- TGI (BT-549 breast): 5.2 µM
- GI50 (SNB-19 CNS): 2.53 µM
- TGI (SNB-19 CNS): 9.27 µM
- GI50 (COLO 205 colon): 1.98 µM
- TGI (COLO 205 colon): 7.24 µM
- GI50 (OVCAR-4 ovarian): 0.91 µM
- TGI (OVCAR-4 ovarian): 2.8 µM
- GI50 (A549 NSCLC): 0.581 µM
- TGI (A549 NSCLC): 1.28 µM
- GI50 (HS 578T breast): 0.845 µM
- TGI (HS 578T breast): 4.31 µM
- GI50 (SK-MEL-2 melanoma): 1.49 µM
- TGI (SK-MEL-2 melanoma): 4.44 µM
- GI50 (K-562 leukemia): 1.57 µM
- TGI (K-562 leukemia): 10.2 µM
- GI50 (SR leukemia): 1.06 µM
- TGI (SR leukemia): 3.27 µM
- GI50 (UACC-257 melanoma): 2.34 µM
- TGI (UACC-257 melanoma): 9.02 µM
- GI50 (RPMI-8226 leukemia): 1.9 µM
- TGI (RPMI-8226 leukemia): 14.6 µM
- GI50 (CAKI-1 renal): 0.886 µM
- TGI (CAKI-1 renal): 2.26 µM
- GI50 (HCT-116 colon): 1.47 µM
- TGI (HCT-116 colon): 5.77 µM
- GI50 (SNB-75 CNS): 1.15 µM
- TGI (SNB-75 CNS): 6.65 µM
- GI50 (OVCAR-8 ovarian): 1.62 µM
- TGI (OVCAR-8 ovarian): 5.56 µM
- GI50 (OVCAR-3 ovarian): 1.17 µM
- TGI (OVCAR-3 ovarian): 3.08 µM
- GI50 (SK-OV-3 ovarian): 1.75 µM
- TGI (SK-OV-3 ovarian): 7.69 µM
- GI50 (SF-295 CNS): 1.7 µM
- TGI (SF-295 CNS): 6.27 µM
- GI50 (NCI/ADR-RES ovarian): 0.999 µM
- TGI (NCI/ADR-RES ovarian): 2.4 µM
- GI50 (SK-MEL-5 melanoma): 1.22 µM
- TGI (SK-MEL-5 melanoma): 2.88 µM
- GI50 (SF-268 CNS): 0.739 µM
- TGI (SF-268 CNS): 2.42 µM
- GI50 (HCC-2998 colon): 3.09 µM
- TGI (HCC-2998 colon): 21.3 µM
- GI50 (NCI-H522 lung): 0.237 µM
- TGI (NCI-H522 lung): 1.51 µM
- GI50 (MCF7 breast): 1.3 µM
- TGI (MCF7 breast): 7.57 µM
- GI50 (MALME-3M melanoma): 1.49 µM
- TGI (MALME-3M melanoma): 3.45 µM
- GI50 (M14 melanoma): 2.38 µM
- TGI (M14 melanoma): 10.5 µM
- GI50 (MDA-MB-435): 1.71 µM
- TGI (MDA-MB-435): 6.17 µM
- GI50 (EKVX NSCLC): 0.781 µM
- TGI (EKVX NSCLC): 1.93 µM
- GI50 (PC-3 prostate): 0.78 µM
- TGI (PC-3 prostate): 3.57 µM
- GI50 (HL-60(TB) leukemia): 1.12 µM
- TGI (HL-60(TB) leukemia): 3.08 µM
- GI50 (U251 CNS): 1.68 µM
- TGI (U251 CNS): 5.67 µM
- GI50 (OVCAR-5 ovarian): 1.77 µM
- TGI (OVCAR-5 ovarian): 6.32 µM
- GI50 (LOX IMVI melanoma): 1.46 µM
- TGI (LOX IMVI melanoma): 5.09 µM
- GI50 (SN12C renal): 0.414 µM
- TGI (SN12C renal): 2.49 µM
- GI50 (CCRF-CEM leukemia): 0.78 µM
- TGI (CCRF-CEM leukemia): 5.24 µM
- GI50 (NCI-H23 lung): 0.839 µM
- TGI (NCI-H23 lung): 2.71 µM

Structure (SMILES): CC(=O)N1N=C(c2ccc(C)cc2)CC1c1cn(-c2ccccc2)nc1-c1cccc(Nc2ccnc3cc(Cl)ccc23)c1 (configuration not stated)
- GI50 (KM12 colon): > 100 µM
- TGI (KM12 colon): > 100 µM
- GI50 (UO-31 renal): > 100 µM
- TGI (UO-31 renal): > 100 µM
- GI50 (IGROV1 ovarian): > 100 µM
- TGI (IGROV1 ovarian): > 100 µM
- GI50 (TK-10 renal): > 100 µM
- TGI (TK-10 renal): > 100 µM
- GI50 (NCI-H226 lung): > 100 µM
- TGI (NCI-H226 lung): > 100 µM
- GI50 (A498 renal): > 100 µM
- TGI (A498 renal): > 100 µM
- GI50 (BT-549 breast): > 100 µM
- TGI (BT-549 breast): > 100 µM
- GI50 (COLO 205 colon): > 100 µM
- TGI (COLO 205 colon): > 100 µM
- GI50 (UACC-257 melanoma): > 100 µM
- TGI (UACC-257 melanoma): > 100 µM
- GI50 (CAKI-1 renal): > 100 µM
- TGI (CAKI-1 renal): > 100 µM
- GI50 (SK-OV-3 ovarian): > 100 µM
- TGI (SK-OV-3 ovarian): > 100 µM
- GI50 (SK-MEL-5 melanoma): > 100 µM
- TGI (SK-MEL-5 melanoma): > 100 µM
- GI50 (SF-268 CNS): > 100 µM
- TGI (SF-268 CNS): > 100 µM
- GI50 (HCC-2998 colon): > 100 µM
- TGI (HCC-2998 colon): > 100 µM
- GI50 (PC-3 prostate): > 100 µM
- TGI (PC-3 prostate): > 100 µM

Reference: PubChem BioAssay (NCI)
